These results are taken from ChEMBL document CHEMBL2331295, “Characterization of a selective CaMKII peptide inhibitor” (Eur J Med Chem, 2013).

For experiment [1], the target named is Calcium/calmodulin-dependent protein kinase type II subunit alpha (Homo sapiens) (UniProt Q9UQM7). Description: Inhibition of GFP-tagged CAMK2alpha (unknown origin) expressed in african green monkey Vero cells using syntide2 as substrate assessed as incorporation of 32P at 5 uM after 30 mins by scintillation counting analysis in presence of [gamma32P]ATP relative to control. The format is cell-based.

The subject of experiment [2] is H9c2. Description: Inhibition of serum-induced endogenous CAMK2 activation in […] H9C2 cells at 5 uM after 30 mins relative to control. Type of experiment: cell-based.
Experiment [3] has as its target Calcium/calmodulin-dependent protein kinase type 1 (Homo sapiens) (UniProt Q14012). Description: Inhibition of CAMK1 (unknown origin) using ADR1G as substrate assessed as incorporation of 32P at 5 uM after 30 mins by scintillation counting analysis in presence of [gamma32P]ATP relative to control.
Experiment [4] has as its target T1, Calcium/calmodulin-dependent protein kinase type IV (Homo sapiens) (UniProt Q16566).
T1 sequence (whole entry): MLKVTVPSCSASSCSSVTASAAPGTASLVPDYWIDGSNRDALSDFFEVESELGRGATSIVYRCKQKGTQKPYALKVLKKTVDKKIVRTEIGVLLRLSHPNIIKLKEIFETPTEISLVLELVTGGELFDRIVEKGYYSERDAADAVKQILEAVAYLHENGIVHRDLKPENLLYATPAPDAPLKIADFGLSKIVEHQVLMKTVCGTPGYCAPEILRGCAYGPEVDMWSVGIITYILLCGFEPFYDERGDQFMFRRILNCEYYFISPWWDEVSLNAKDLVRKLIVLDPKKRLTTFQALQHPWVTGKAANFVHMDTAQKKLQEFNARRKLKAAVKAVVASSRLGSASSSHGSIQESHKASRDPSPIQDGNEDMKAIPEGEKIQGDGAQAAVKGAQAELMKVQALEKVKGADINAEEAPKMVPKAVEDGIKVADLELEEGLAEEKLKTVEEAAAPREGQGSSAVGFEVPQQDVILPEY
Description: Inhibition of CAMK4 (unknown origin) using gamma peptide as substrate assessed as incorporation of 32P at 5 uM after 30 mins by scintillation counting analysis in presence of [gamma32P]ATP relative to control.

Activity calls are given as the source filed them. The calls are words filed in the database; no cut-off is given here. A value given as a limit tells only on which side of the number the result lay.

Sequence of Calcium/calmodulin-dependent protein kinase type II subunit alpha (Homo sapiens) (Q9UQM7 whole entry): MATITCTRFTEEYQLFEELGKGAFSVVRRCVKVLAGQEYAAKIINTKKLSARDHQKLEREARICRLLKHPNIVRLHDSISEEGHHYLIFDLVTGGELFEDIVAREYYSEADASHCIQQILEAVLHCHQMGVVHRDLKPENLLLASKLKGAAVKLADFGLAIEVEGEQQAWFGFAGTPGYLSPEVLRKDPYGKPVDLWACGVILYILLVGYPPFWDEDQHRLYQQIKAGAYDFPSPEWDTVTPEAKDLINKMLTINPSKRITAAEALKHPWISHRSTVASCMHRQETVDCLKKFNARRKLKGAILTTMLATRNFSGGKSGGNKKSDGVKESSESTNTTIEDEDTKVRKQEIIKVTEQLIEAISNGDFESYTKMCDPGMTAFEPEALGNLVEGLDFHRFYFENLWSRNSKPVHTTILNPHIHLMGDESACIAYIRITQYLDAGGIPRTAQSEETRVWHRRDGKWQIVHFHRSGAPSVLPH
Sequence of Calcium/calmodulin-dependent protein kinase type 1 (Homo sapiens) (Q14012 whole entry, looked up): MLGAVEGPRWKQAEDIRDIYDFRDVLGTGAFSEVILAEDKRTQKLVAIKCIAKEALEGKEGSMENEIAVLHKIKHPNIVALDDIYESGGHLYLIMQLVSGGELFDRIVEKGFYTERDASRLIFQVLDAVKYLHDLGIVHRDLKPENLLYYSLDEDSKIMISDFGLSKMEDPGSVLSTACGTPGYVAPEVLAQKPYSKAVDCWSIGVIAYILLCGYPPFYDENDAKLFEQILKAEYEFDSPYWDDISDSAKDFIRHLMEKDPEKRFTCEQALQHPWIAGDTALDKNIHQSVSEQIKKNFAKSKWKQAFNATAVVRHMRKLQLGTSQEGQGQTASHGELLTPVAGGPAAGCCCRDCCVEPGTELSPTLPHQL

For the substance H-KRPPKLGQIGRSKRVVI-OH, the inhibition in experiment [1] is less than 70%.

Regarding “H-RQIKIWFQNRRMKWKKGGCKRPPKLGQIGRAKRVVI-OH”, the inhibition was found to be 52% in experiment [2] and 6.1% in experiment [3]. Also, in experiment [4], the inhibition result is “inactive”.

For orientation: inhibition means the share of the control response that was lost under treatment.
